Results from publication PMC5218480 (PLoS ONE, 2017).

Test system: MV-4-11 cells
Assay: Gene expression microarray analysis (Affymetrix PrimeView) and GSEA
Type: cell-based, human
Set-up: RFU PODN (11730768_x_at) / Fold change /veh PODN (11730768_x_at) / RFU LINC00158 (11744669_a_at) / Fold change /veh LINC00158 (11744669_a_at) / RFU DUSP10 (11751237_a_at) / Fold change /veh DUSP10 (11751237_a_at) / RFU ID3 (11757404_x_at) / Fold change /veh ID3 (11757404_x_at) / RFU PLEKHG5 (11737974_s_at) / Fold change /veh PLEKHG5 (11737974_s_at) / RFU LRRC4B (11730491_at) / Fold change /veh LRRC4B (11730491_at) / RFU GIMAP4 (11747438_a_at) / Fold change /veh GIMAP4 (11747438_a_at) / RFU KRT8 (11758183_x_at) / Fold change /veh KRT8 (11758183_x_at) / RFU CNN1 (11734310_a_at) / Fold change /veh CNN1 (11734310_a_at) / RFU VPS37D (11726825_at) / Fold change /veh VPS37D (11726825_at) / RFU C10orf10 (11716522_x_at) / Fold change /veh C10orf10 (11716522_x_at) / RFU KIR2DL2 /// KIR2DL4 /// KIR2DL5A /// KIR2DL5B /// KIR2DS1 /// KIR2DS2 /// KIR2DS3 /// KIR2DS4 /// KIR3DL3 /// KIR3DL3 /// KIR3DS1 (11738374_at) / Fold change /veh KIR2DL2 /// KIR2DL4 /// KIR2DL5A /// KIR2DL5B /// KIR2DS1 /// KIR2DS2 /// KIR2DS3 /// KIR2DS4 /// KIR3DL3 /// KIR3DL3 /// KIR3DS1 (11738374_at) / RFU C1QL1 (11718748_at) / Fold change /veh C1QL1 (11718748_at) / RFU TMPRSS4 (11747572_a_at) / Fold change /veh TMPRSS4 (11747572_a_at) / RFU HAMP (11756126_x_at) / Fold change /veh HAMP (11756126_x_at) / RFU RNFT2 (11725882_a_at) / Fold change /veh RNFT2 (11725882_a_at) / RFU NR4A2 (11747474_a_at) / Fold change /veh NR4A2 (11747474_a_at) / RFU ABCC12 (11746883_a_at) / Fold change /veh ABCC12 (11746883_a_at) / RFU TMEM136 (11760407_x_at) / Fold change /veh TMEM136 (11760407_x_at) / RFU CLDN22 /// WWC2 (11732394_at) / Fold change /veh CLDN22 /// WWC2 (11732394_at) / RFU HLA-DPB1 (11760878_x_at) / Fold change /veh HLA-DPB1 (11760878_x_at) / RFU SPINT1 (11716480_a_at) / Fold change /veh SPINT1 (11716480_a_at) / RFU GAP43 (11754022_s_at) / Fold change /veh GAP43 (11754022_s_at) / RFU A4GNT (11735810_at) / Fold change /veh A4GNT (11735810_at) / RFU PRB3 (11715151_x_at) / Fold change /veh PRB3 (11715151_x_at) / RFU TUBB4B (11761932_at) / Fold change /veh TUBB4B (11761932_at) / RFU CAPN14 (11732068_a_at) / Fold change /veh CAPN14 (11732068_a_at) / RFU TMCC2 (11721928_a_at) / Fold change /veh TMCC2 (11721928_a_at) / RFU IRGQ (11745062_a_at) / Fold change /veh IRGQ (11745062_a_at) / RFU FAM174B (11720279_a_at) / Fold change /veh FAM174B (11720279_a_at) / RFU TMPRSS4 (11748680_a_at) / Fold change /veh TMPRSS4 (11748680_a_at) / RFU FAM212B (11763350_a_at) / Fold change /veh FAM212B (11763350_a_at) / RFU PLEKHG5 (11743358_a_at) / Fold change /veh PLEKHG5 (11743358_a_at) / RFU ZSCAN30 (11745921_a_at) / Fold change /veh ZSCAN30 (11745921_a_at) / RFU CMKLR1 (11741424_a_at) / Fold change /veh CMKLR1 (11741424_a_at) / RFU LOC101060620 /// MAPK8IP1 (11723275_at) / Fold change /veh LOC101060620 /// MAPK8IP1 (11723275_at) / RFU SPTSSB (11747773_x_at) / Fold change /veh SPTSSB (11747773_x_at) / RFU PRSS12 (11739890_at) / Fold change /veh PRSS12 (11739890_at) / RFU BIN1 (11741810_x_at) / Fold change /veh BIN1 (11741810_x_at) / RFU WNT11 (11732464_a_at) / Fold change /veh WNT11 (11732464_a_at) / RFU C10orf10 (11716521_a_at) / Fold change /veh C10orf10 (11716521_a_at) / RFU C5orf56 (11738089_at) / Fold change /veh C5orf56 (11738089_at) / RFU CYB561 (11721691_x_at) / Fold change /veh CYB561 (11721691_x_at) / RFU ANKRD19P (11752326_a_at) / Fold change /veh ANKRD19P (11752326_a_at) / RFU OR2T12 /// OR2T33 /// OR2T8 (11738714_s_at) / Fold change /veh OR2T12 /// OR2T33 /// OR2T8 (11738714_s_at) / RFU VCAN (11748164_a_at) / Fold change /veh VCAN (11748164_a_at) / RFU JSRP1 (11732532_at) / Fold change /veh JSRP1 (11732532_at) / RFU KRTAP10-11 (11738290_x_at) / Fold change /veh KRTAP10-11 (11738290_x_at) / RFU MYO3A (11730013_a_at) / Fold change /veh MYO3A (11730013_a_at) / RFU EBF3 (11725865_a_at) / Fold change /veh EBF3 (11725865_a_at) / RFU CAMK2N1 (11719241_x_at) / Fold change /veh CAMK2N1 (11719241_x_at) / RFU C5orf56 (11738088_a_at) / Fold change /veh C5orf56 (11738088_a_at) / RFU OLFML3 (11715873_a_at) / Fold change /veh OLFML3 (11715873_a_at) / RFU LOC100653217 /// NTM (11731650_a_at) / Fold change /veh LOC100653217 /// NTM (11731650_a_at) / RFU MAPK11 (11762145_a_at) / Fold change /veh MAPK11 (11762145_a_at) / RFU FIZ1 (11724087_x_at) / Fold change /veh FIZ1 (11724087_x_at) / RFU OASL (11726364_x_at) / Fold change /veh OASL (11726364_x_at) / RFU SOX15 (11748057_x_at) / Fold change /veh SOX15 (11748057_x_at) / RFU CD79A (11719716_a_at) / Fold change /veh CD79A (11719716_a_at) / RFU HIST1H1D (11736915_at) / Fold change /veh HIST1H1D (11736915_at) / RFU CASKIN2 (11723855_a_at) / Fold change /veh CASKIN2 (11723855_a_at) / RFU LOC730098 (11760151_x_at) / Fold change /veh LOC730098 (11760151_x_at) / RFU OR4N2 (11742367_at) / Fold change /veh OR4N2 (11742367_at) / RFU PRRT2 (11749266_a_at) / Fold change /veh PRRT2 (11749266_a_at) / RFU SNX32 (11753110_a_at) / Fold change /veh SNX32 (11753110_a_at) / RFU CDHR5 (11726645_a_at) / Fold change /veh CDHR5 (11726645_a_at) / RFU RCAN1 (11760418_a_at) / Fold change /veh RCAN1 (11760418_a_at) / RFU FAM167A (11723789_a_at) / Fold change /veh FAM167A (11723789_a_at) / RFU FAM26E (11764081_at) / Fold change /veh FAM26E (11764081_at) / RFU ISYNA1 (11749810_s_at) / Fold change /veh ISYNA1 (11749810_s_at) / RFU ACY1 (11761880_at) / Fold change /veh ACY1 (11761880_at) / RFU 11764098_at / Fold change /veh 11764098_at / RFU SAMD14 (11745864_x_at) / Fold change /veh SAMD14 (11745864_x_at) / RFU NPB (11741838_a_at) / Fold change /veh NPB (11741838_a_at) / RFU TMPRSS6 (11731388_a_at) / Fold change /veh TMPRSS6 (11731388_a_at) / RFU KRTAP10-2 (11738614_at) / Fold change /veh KRTAP10-2 (11738614_at) / RFU ARHGAP8 /// PRR5-ARHGAP8 (11727945_x_at) / Fold change /veh ARHGAP8 /// PRR5-ARHGAP8 (11727945_x_at) / RFU KRTAP5-7 /// NADSYN1 (11734609_at) / Fold change /veh KRTAP5-7 /// NADSYN1 (11734609_at) / RFU RASL12 (11751679_a_at) / Fold change /veh RASL12 (11751679_a_at) / RFU CDKN2B (11736163_a_at) / Fold change /veh CDKN2B (11736163_a_at) / RFU PRF1 (11729649_at) / Fold change /veh PRF1 (11729649_at) / RFU, ZNF638 /// ZNF638-IT1 / Fold change vs veh, ZNF638 /// ZNF638-IT1 / RFU, PANK3 / Fold change vs veh, PANK3 / RFU, SH3YL1 / Fold change vs veh, SH3YL1 / RFU, ZEB2 / Fold change vs veh, ZEB2 / RFU, NRIP1 / Fold change vs veh, NRIP1 / RFU, PTTG1IP / Fold change vs veh, PTTG1IP / RFU, CAPN2 / Fold change vs veh, CAPN2 / RFU, MED14 / Fold change vs veh, MED14 / RFU, SNORA58 / Fold change vs veh, SNORA58 / RFU, C1orf63 / Fold change vs veh, C1orf63 / RFU, LRRFIP1 / Fold change vs veh, LRRFIP1 / RFU, NDUFAF7 / Fold change vs veh, NDUFAF7 / RFU, SLC12A2 / Fold change vs veh, SLC12A2 / RFU, IBTK / Fold change vs veh, IBTK / RFU, ESF1 / Fold change vs veh, ESF1 / Fold change vs veh, TMEM50B / RFU, TAOK1 / Fold change vs veh, TAOK1 / RFU, ACBD3 / Fold change vs veh, ACBD3 / RFU, TMA16 / Fold change vs veh, TMA16 / RFU, RWDD3 / Fold change vs veh, RWDD3 / RFU, BCAT1 / Fold change vs veh, BCAT1 / RFU, EDEM3 / Fold change vs veh, EDEM3 / RFU, TMEM33 / Fold change vs veh, TMEM33 / RFU, WDR75 / Fold change vs veh, WDR75 / RFU, AHCTF1 / Fold change vs veh, AHCTF1 / RFU, TFRC / Fold change vs veh, TFRC / RFU, ZDHHC17 / Fold change vs veh, ZDHHC17 / RFU, NOM1 / Fold change vs veh, NOM1 / RFU, ARL8B / Fold change vs veh, ARL8B / RFU, ZBTB11 / Fold change vs veh, ZBTB11 / RFU, TAMM41 / Fold change vs veh, TAMM41 / RFU, KIAA1704 /// LOC100996395 / Fold change vs veh, KIAA1704 /// LOC100996395 / RFU, ING1 / Fold change vs veh, ING1 / RFU, TRMT61B / Fold change vs veh, TRMT61B / RFU, FUBP3 / Fold change vs veh, FUBP3 / RFU, TP53 / Fold change vs veh, TP53 / RFU, TNKS2 / Fold change vs veh, TNKS2 / RFU, ZFP14 / Fold change vs veh, ZFP14 / RFU, ACTR2 / Fold change vs veh, ACTR2 / RFU, PPP3R1 / Fold change vs veh, PPP3R1 / RFU, PIK3R1 / Fold change vs veh, PIK3R1 / RFU, HNRNPA1 / Fold change vs veh, HNRNPA1 / RFU, RNF170 / Fold change vs veh, RNF170 / RFU, ZNF28 / Fold change vs veh, ZNF28 / RFU, RNGTT / Fold change vs veh, RNGTT / RFU, OGT / Fold change vs veh, OGT / RFU, BRD1 / Fold change vs veh, BRD1 / RFU, MARS / Fold change vs veh, MARS / RFU, ZNF655 / Fold change vs veh, ZNF655 / RFU, FAHD1 / Fold change vs veh, FAHD1 / RFU, BDP1 / Fold change vs veh, BDP1 / RFU, LRRCC1 / Fold change vs veh, LRRCC1 / RFU, ARID1A / Fold change vs veh, ARID1A / RFU, ZNF146 / Fold change vs veh, ZNF146 / RFU, ZNF330 / Fold change vs veh, ZNF330 / RFU, GPN3 / Fold change vs veh, GPN3 / RFU, C9orf123 / Fold change vs veh, C9orf123 / RFU, N4BP2L2 / Fold change vs veh, N4BP2L2 / RFU, ARFIP1 / Fold change vs veh, ARFIP1 / RFU, FAM179B / Fold change vs veh, FAM179B / RFU, BCL10 / Fold change vs veh, BCL10 / RFU, UHRF1BP1L / Fold change vs veh, UHRF1BP1L / RFU, BET1 / Fold change vs veh, BET1 / RFU, CNOT2 / Fold change vs veh, CNOT2 / RFU, ZNF268 / Fold change vs veh, ZNF268 / Fold change vs veh, ZNF507 / RFU, DGCR2 / Fold change vs veh, DGCR2 / RFU, WDSUB1 / Fold change vs veh, WDSUB1 / Fold change vs veh, HSP90B1 /// MIR3652 / RFU, ADSS / Fold change vs veh, ADSS / RFU, GK / Fold change vs veh, GK / RFU, ZNF148 / Fold change vs veh, ZNF148 / RFU, TAF9 / Fold change vs veh, TAF9 / RFU, SLC1A5 / Fold change vs veh, SLC1A5 / RFU, SLMO2 / Fold change vs veh, SLMO2 / RFU, ABCC4 / Fold change vs veh, ABCC4 / RFU, LOC101060439 /// RAP1B / Fold change vs veh, LOC101060439 /// RAP1B / RFU, RFX7 / Fold change vs veh, RFX7 / RFU, GTPBP10 / Fold change vs veh, GTPBP10 / RFU, CNEP1R1 / Fold change vs veh, CNEP1R1 / RFU, BIVM-ERCC5 /// ERCC5 / Fold change vs veh, BIVM-ERCC5 /// ERCC5 / RFU, ILF3 / Fold change vs veh, ILF3 / RFU 11762660_at / Fold change /veh 11762660_at / RFU VCAN (11757783_s_at) / Fold change /veh VCAN (11757783_s_at) / RFU DDX43 (11728927_at) / Fold change /veh DDX43 (11728927_at) / RFU KRT8 (11758188_x_at) / Fold change /veh KRT8 (11758188_x_at) / RFU NKD1 (11759106_at) / Fold change /veh NKD1 (11759106_at) / RFU SRD5A1 (11742802_a_at) / Fold change /veh SRD5A1 (11742802_a_at) / RFU TPSAB1 /// TPSB2 (11721975_s_at) / Fold change /veh TPSAB1 /// TPSB2 (11721975_s_at) / RFU GSTM3 (11746129_a_at) / Fold change /veh GSTM3 (11746129_a_at) / RFU IL23R (11737362_x_at) / Fold change /veh IL23R (11737362_x_at) / RFU TMEM51 (11727254_a_at) / Fold change /veh TMEM51 (11727254_a_at) / RFU PIWIL2 (11732686_x_at) / Fold change /veh PIWIL2 (11732686_x_at) / RFU ORM1 (11744905_x_at) / Fold change /veh ORM1 (11744905_x_at) / RFU CCDC152 (11743942_at) / Fold change /veh CCDC152 (11743942_at) / RFU ECM1 (11717891_a_at) / Fold change /veh ECM1 (11717891_a_at) / RFU IL23R (11748794_a_at) / Fold change /veh IL23R (11748794_a_at) / RFU TNFAIP8L3 (11732012_x_at) / Fold change /veh TNFAIP8L3 (11732012_x_at) / RFU MBOAT4 (11741988_at) / Fold change /veh MBOAT4 (11741988_at) / RFU 11764193_at / Fold change /veh 11764193_at / RFU TMEM53 (11763286_at) / Fold change /veh TMEM53 (11763286_at) / RFU MAGEB2 (11727129_at) / Fold change /veh MAGEB2 (11727129_at) / RFU TMEM200A (11744735_a_at) / Fold change /veh TMEM200A (11744735_a_at) / RFU CCDC152 (11751479_a_at) / Fold change /veh CCDC152 (11751479_a_at) / RFU FAM211A (11726209_a_at) / Fold change /veh FAM211A (11726209_a_at) / RFU RGS16 (11746705_a_at) / Fold change /veh RGS16 (11746705_a_at) / RFU VCAN (11755009_s_at) / Fold change /veh VCAN (11755009_s_at) / RFU RHOB (11743442_s_at) / Fold change /veh RHOB (11743442_s_at) / RFU RGS16 (11720943_a_at) / Fold change /veh RGS16 (11720943_a_at) / RFU RGS16 (11720944_at) / Fold change /veh RGS16 (11720944_at) / RFU, VPS4B / Fold change vs veh, VPS4B / RFU, CREB1 / Fold change vs veh, CREB1 / RFU, DNAJC13 / Fold change vs veh, DNAJC13 / RFU, GNAQ / Fold change vs veh, GNAQ / RFU, CDK5R1 / Fold change vs veh, CDK5R1 / RFU, ZRANB3 / Fold change vs veh, ZRANB3 / RFU, CUL4A / Fold change vs veh, CUL4A / RFU, CCNY / Fold change vs veh, CCNY / RFU, UFL1 / Fold change vs veh, UFL1 / RFU, COG3 / Fold change vs veh, COG3 / RFU, DIAPH2 / Fold change vs veh, DIAPH2 / RFU, SKA2 / Fold change vs veh, SKA2 / RFU, AFF3 / Fold change vs veh, AFF3 / RFU, LMF1 / Fold change vs veh, LMF1 / RFU, IPO11 / Fold change vs veh, IPO11 / RFU, DFFB / Fold change vs veh, DFFB / RFU, FOXP1 / Fold change vs veh, FOXP1 / RFU, CARD8 / Fold change vs veh, CARD8 / RFU, STRN3 / Fold change vs veh, STRN3 / RFU, ADK / Fold change vs veh, ADK / RFU, RASSF2 / Fold change vs veh, RASSF2 / RFU, WIPF1 / Fold change vs veh, WIPF1 / RFU, LARP1B / Fold change vs veh, LARP1B / RFU, RASA1 / Fold change vs veh, RASA1 / RFU, RB1 / Fold change vs veh, RB1 / RFU, PPFIA1 / Fold change vs veh, PPFIA1 / RFU, MAT2A / Fold change vs veh, MAT2A / RFU, CCT5 / Fold change vs veh, CCT5 / RFU, WDR92 / Fold change vs veh, WDR92 / RFU, CUX1 / Fold change vs veh, CUX1 / RFU, TTC7A / Fold change vs veh, TTC7A / RFU, TMEM135 / Fold change vs veh, TMEM135 / RFU, DEPTOR / Fold change vs veh, DEPTOR / RFU, CPM / Fold change vs veh, CPM / RFU, DNAJB6 / Fold change vs veh, DNAJB6 / RFU, CACNA2D3 / Fold change vs veh, CACNA2D3 / RFU, DTX4 / Fold change vs veh, DTX4 / RFU, TFCP2 / Fold change vs veh, TFCP2 / RFU, GMCL1 /// GMCL1P1 / Fold change vs veh, GMCL1 /// GMCL1P1 / RFU, AEBP2 / Fold change vs veh, AEBP2 / RFU, SNHG1 /// SNORD22 /// SNORD25 /// SNORD26 /// SNORD27 /// SNORD28 /// SNORD29 /// SNORD31 / Fold change vs veh, SNHG1 /// SNORD22 /// SNORD25 /// SNORD26 /// SNORD27 /// SNORD28 /// SNORD29 /// SNORD31 / Fold change (Aza/veh), C12orf56 (ProbeSet 11735607_a_at) / Fold change (ACY-1035/veh), C12orf56 (ProbeSet 11735607_a_at) / Fold change (Aza/veh), FGFR1OP (ProbeSet 11751329_s_at) / Fold change (ACY-1035/veh), FGFR1OP (ProbeSet 11751329_s_at) / Fold change (Aza/veh), VPS36 (ProbeSet 11739960_a_at) / Fold change (ACY-1035/veh), VPS36 (ProbeSet 11739960_a_at) / RFU SYPL1 (11715823_x_at) / Fold change /veh SYPL1 (11715823_x_at) / RFU IGFBP7 (11715501_s_at) / Fold change /veh IGFBP7 (11715501_s_at) / RFU REEP3 (11722064_at) / Fold change /veh REEP3 (11722064_at) / RFU IGLL1 (11728026_x_at) / Fold change /veh IGLL1 (11728026_x_at): dose or concentration left out as unconfirmed
Settings: MV-4-11 cells, 48 hours

Nc1ccc(-c2cccs2)cc1NC(=O)c1ccc2c(c1)cc(C1CC1)n2CCN1CCOCC1 [ACY-1035]
RFU ARHGAP8 /// PRR5-ARHGAP8 (11727945_x_at): 101.90 RFU
